Molecular target: lysozyme (Gallus gallus, UniProt P00698)
Assay: Relative inhibition of lysozyme (I50), UV spectrophotometric method with Micrococcus lysodeikticus as substrate
Format: biochemical
Conditions: copolymers prepared in absence of lysozyme, and NAG
Description: This example describes estimation of inhibition concentration (I50) for lysozyme imprinted polyvalent copolymers and polyvalent copolymers prepared in the absence of lysozymne by UV spectrophotometric method. Micrococcus lysodeikticus is a substrate for the enzyme lysozyme. Relative binding of copolYmers was estimated by using a procedure reported by Neuberger and Wilson (1967). 1.5% w/v stock solutions of non imprinted copolymer was prepared in 0.0066 M phosphate buffer pH 6.2 containing 0.0154 M sodium chloride and 0.008 M sodium azide. One milliliter of stock solution containing different copolymer concentration was mixed with 1.6 ml of 78 μg/ml of Micrococcus lysodeikticus in a 3-ml capacity glass cuvette. The mixture was incubated for 5 minutes at 20° C. To this mixture 0.1 ml of lysozyme (27 μg/ml) was added and mixed thoroughly. The relative absorbance at 450 nm (Δ450) was recorded for 30 seconds. A blank reading without the copolymer was noted and the change in the absorbance per second was calculated. Then relative inhibition was calculated.

lysozyme, sequence (P00698 19-147): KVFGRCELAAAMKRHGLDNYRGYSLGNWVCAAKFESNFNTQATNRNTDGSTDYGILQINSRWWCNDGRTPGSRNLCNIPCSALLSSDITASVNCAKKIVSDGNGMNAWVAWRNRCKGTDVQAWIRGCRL

I max (concentration at maximum inhibition): 92000 nM
I max: 55.29
IC50 (read-out: Relative Inhibition Iso (I50)): 74 µM
SMILES: CC(=O)N[C@H]1C(O)O[C@H](CO)[C@@H](O)[C@@H]1O (stereo partly drawn) [NAG, N-Acetyl Glucosamine]
